Values after ≈ are worked out from the molar mass of the structure shown. Like-named read-outs stand apart in the source and are kept apart here.
Columns and labels:
Assay in all cases: antimicrobial activity, serial dilution method on agar plate
Format in all cases: cell-based
Proteus rettgeri NIH 96 = conditions: Providencia rettgeri
Outline: (§1)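 Agar-plate serial dilution in Heart Infusion agar; inocula prepared at 1×10^8 cells/ml (O.D. 660 mμ=0.07 to 0.16) and at 1×10^6 cells/ml by dilution. Values are minimum inhibitory concentrations in mcg/ml.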

[1] = system: Pseudomonas maltophilia IFO 12692; conditions: Stenotrophomonas maltophilia, IFO12692, read-out: Minimum Inhibitory Concentration
Outline: as §1

[2] = system: Staphylococcus aureus FDA 209 P
Outline: as §1

[3] = system: Corinebacterium diphteriae
Outline: as §1

[4] = system: Enterobacter aerogenes IFO 12979; conditions: Klebsiella aerogenes
Outline: as §1

[5] = system: Proteus morganii IID Kono; conditions: Morganella morganii
Outline: as §1

[6] = system: Streptococcus pyogenes IID Cook
Outline: as §1

Klebsiella pneumoniae = system: Klebsiella pneumoniae
Outline: as §1

[7] = system: Proteus vulgaris IID OX-19; conditions: read-out: Minimum Inhibitory Concentration
Outline: as §1

Escherichia Coli NIHJ = conditions: read-out: Minimum Inhibitory Concentration
Outline: as §1

Shigella Sonnei EW 33 = conditions: read-out: Minimum Inhibitory Concentration
Outline: as §1

[8] = system: Pseudomonas aeruginosa E-2
Outline: as §1

[9] = system: Streptococcus pyogenes IID S-23
Outline: as §1

[10] = system: Serattia marcescens IFO 12648
Outline: as §1

[11] = system: Salmonella typhi 0-901 (NCTC 8393); conditions: Salmonella enterica
Outline: as §1

Enterobacter cloacae = system: Enterobacter cloacae
Outline: as §1

[12] = system: Klebsiella pneumoniae ST-101
Outline: as §1

[13] = system: Bacillus subtilis PCI 219
Outline: as §1

[14] = system: Streptococcus pneumoniae Type III
Outline: as §1

[15] = system: Yersinia enterocolitica 0-3
Outline: as §1

[16] = read-out: Minimum Inhibitory Concentration, inoculum 1 × 10^6 cells/ml
[17] = read-out: Minimum Inhibitory Concentration, inoculum 1 × 10^8 cells/ml

CCn1cc(C(=O)O)c(=O)c2ccc(C)nc21 [E]
MIC (Proteus rettgeri NIH 96; NIH96, read-out: Minimum Inhibitory Concentration, inoculum 1 × 10^6 cells/ml): 0.8 µg/mL (≈ 3.44 µM)
MIC (Proteus rettgeri NIH 96; NIH96, read-out: Minimum Inhibitory Concentration, inoculum 1 × 10^8 cells/ml): 1.6 µg/mL (≈ 6.89 µM)
MIC [1]: > 100 µg/mL
MIC ([2]; FDA209, read-out: Minimum Inhibitory Concentration, inoculum 1 × 10^6 cells/ml): 50 µg/mL (≈ 215 µM)
MIC ([2]; FDA209, read-out: Minimum Inhibitory Concentration, inoculum 1 × 10^8 cells/ml): 50 µg/mL (≈ 215 µM)
MIC [3, 16]: > 100 µg/mL
MIC [3, 17]: > 100 µg/mL
MIC ([4]; IFO12979, read-out: Minimum Inhibitory Concentration, inoculum 1 × 10^6 cells/ml): 3.1 µg/mL (≈ 13.3 µM)
MIC ([4]; IFO12979, read-out: Minimum Inhibitory Concentration, inoculum 1 × 10^8 cells/ml): 6.3 µg/mL (≈ 27.1 µM)
MIC [5, 16]: 3.1 µg/mL (≈ 13.3 µM)
MIC [5, 17]: 6.3 µg/mL (≈ 27.1 µM)
MIC [6, 16]: > 100 µg/mL
MIC [6, 17]: > 100 µg/mL
MIC (Klebsiella pneumoniae; [16]): 3.1 µg/mL (≈ 13.3 µM)
MIC (Klebsiella pneumoniae; [17]): 3.1 µg/mL (≈ 13.3 µM)
MIC ([7]; IIDOX19, inoculum 1 × 10^6 cells/ml): 3.1 µg/mL (≈ 13.3 µM)
MIC ([7]; IIDOX19, inoculum 1 × 10^8 cells/ml): 3.1 µg/mL (≈ 13.3 µM)
MIC (Escherichia Coli NIHJ; inoculum 1 × 10^6 cells/ml): 1.6 µg/mL (≈ 6.89 µM)
MIC (Escherichia Coli NIHJ; inoculum 1 × 10^8 cells/ml): 3.1 µg/mL (≈ 13.3 µM)
MIC (Shigella Sonnei EW 33; inoculum 1 × 10^6 cells/ml): 3.1 µg/mL (≈ 13.3 µM)
MIC (Shigella Sonnei EW 33; inoculum 1 × 10^8 cells/ml): 3.1 µg/mL (≈ 13.3 µM)
MIC ([8]; E2, read-out: Minimum Inhibitory Concentration, inoculum 1 × 10^6 cells/ml): > 100 µg/mL
MIC ([8]; E2, read-out: Minimum Inhibitory Concentration, inoculum 1 × 10^8 cells/ml): > 100 µg/mL
MIC ([9]; IIDS23, read-out: Minimum Inhibitory Concentration, inoculum 1 × 10^6 cells/ml): > 100 µg/mL
MIC ([9]; IIDS23, read-out: Minimum Inhibitory Concentration, inoculum 1 × 10^8 cells/ml): > 100 µg/mL
MIC [10, 16]: 3.1 µg/mL (≈ 13.3 µM)
MIC [10, 17]: 3.1 µg/mL (≈ 13.3 µM)
MIC [11, 16]: 3.1 µg/mL (≈ 13.3 µM)
MIC [11, 17]: 3.1 µg/mL (≈ 13.3 µM)
MIC (Enterobacter cloacae; [16]): 3.1 µg/mL (≈ 13.3 µM)
MIC (Enterobacter cloacae; [17]): 3.1 µg/mL (≈ 13.3 µM)
MIC ([12]; ST101, read-out: Minimum Inhibitory Concentration, inoculum 1 × 10^6 cells/ml): 1.6 µg/mL (≈ 6.89 µM)
MIC ([12]; ST101, read-out: Minimum Inhibitory Concentration, inoculum 1 × 10^8 cells/ml): 1.6 µg/mL (≈ 6.89 µM)
MIC ([13]; PCI219, read-out: Minimum Inhibitory Concentration, inoculum 1 × 10^6 cells/ml): 3.1 µg/mL (≈ 13.3 µM)
MIC ([13]; PCI219, read-out: Minimum Inhibitory Concentration, inoculum 1 × 10^8 cells/ml): 6.3 µg/mL (≈ 27.1 µM)
MIC [14, 16]: > 100 µg/mL
MIC [14, 17]: > 100 µg/mL
MIC ([15]; Yersinia enterocolitica, 03, read-out: Minimum Inhibitory Concentration, inoculum 1 × 10^6 cells/ml): 1.6 µg/mL (≈ 6.89 µM)
MIC ([15]; Yersinia enterocolitica, 03, read-out: Minimum Inhibitory Concentration, inoculum 1 × 10^8 cells/ml): 12.5 µg/mL (≈ 53.8 µM)

Source: patent US4416884A, “Piperazinylbenzoheterocyclic compounds” (Otsuka Pharmaceutical Co., Ltd., priority 1978, dated 1983)
